Measurements published in PubChem BioAssay AID179 (DTP/NCI, 2004).
Several values for one entry are separate records, joined by “and”; a condition that tells them apart may be missing. Identical values can stand only once. Activity calls are given as the source filed them.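 The calls were made as follows: active = compounds giving half or more protection of infected cells from virus-caused growth loss, again on retest; inactive = the rest.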 Where a SMILES comes first, the peptide text is derived from it. Bridges are numbered along the chain shown (N, C = ends). [ ]: non-standard residue; d: D form. Orn = NCCC[CH](N)C(=O)O

System: CEM cells HIV-1 protection, formazan growth assay
Experiment: NCI AIDS Antiviral Assay
Settings: for IC50: measured here: growth of uninfected CEM cells
Procedure, shortened: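 CEM (human) cells, HIV-1 infected vs uninfected, 5-point dosing, formazan growth read-out. Retest threshold 50% protection.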

Compound | EC50 | IC50 | outcome
CC(=O)NC(CCCCNC(=O)OCc1ccccc1)C(=O)NCc1ccccc1 (stereo unspecified) | > 87.1 µM | > 87.1 µM | 
CN(C)c1ccccc1CC(c1c[nH]c2ccccc12)c1c[nH]c2ccccc12 | > 19.1 µM | > 19.1 µM | 
O=C1O[C@H](C(Cl)(Cl)Cl)N2CCCC12 (stereo partly specified) | > 204 µM | > 204 µM | 
CCN(CCCl)CCNc1c2ccccc2nc2ccc(OC)cc12 |  |  | inactive
O=C(CC1=Nc2nnc(-c3nnc4n3C(=O)C(CC(=O)C3CC3)=N4)n2C1=O)C1CC1 | > 24.5 µM | > 24.5 µM | 
O=C(O)CN1CCN2CCOCCOCCN(CC1)CCN(CC(=O)O)CC2 | > 200 µM | 34.7 µM | 
CC1=C(C(=O)Nc2ccccc2C)C(c2ccc(C3C(C(=O)Nc4ccccc4C)=C(C)NC(C)=C3C(=O)Nc3ccccc3C)cc2)C(C(=O)Nc2ccccc2C)=C(C)N1 |  |  | inactive
COc1ccc(C2=Cc3nc2c(-c2ccccc2)c2ccc([nH]2)c(-c2ccccc2)c2nc(c(-c4ccccc4)c4ccc([nH]4)c3-c3ccccc3)C=C2)cc1 | > 100 µM | > 100 µM | 
CCOC(=O)c1cn(CC)c2ccc3ccsc3c2c1=O |  |  | inactive
C=C1C(C)C2C(Cc3ccccc3)NC(=O)C23C(OC(C)=O)C=CC(C)(O)C(=O)C(C)C/C=C/C3C1O (stereo unspecified) | > 20 µM | 0.17 µM | 
COc1ccc2c(c1)CCC/C2=N\NS(=O)(=O)c1c(C)cc(C)cc1C | > 200 µM | 33.1 µM | 
COc1ccc(NC(=O)CC(=O)n2nc(C)c(N=Nc3ccc(C)c(C)c3)c2C)cc1 | > 200 µM | > 200 µM | 
Cc1nn(C(=O)c2c(O)cccc2Cl)c(C)c1N=Nc1ccccc1 |  |  | inactive
CCOC(=O)N1C2c3ccccc3C(c3ccccc32)N1C(=O)OCC | > 56.2 µM | > 56.2 µM | 
CCOC(=O)c1ccc(N=C2Sc3nc4ccccc4n3C2=Nc2ccc(C(=O)OCC)cc2)cc1 | > 50.1 µM | > 50.1 µM | 
COC1/C=C\OC2(C)Oc3c(C)c(O)c4c(O)c(c(/C=N\OCCCc5ccccc5)c(O)c4c3C2=O)NC(=O)/C(C)=C\C=C/C(C)C(O)C(C)C(O)C(C)C(OC(C)=O)C1C (stereo unspecified) | > 200 µM | 6.61 µM | 
CCN(CC)P(=O)(c1ccc2c(c1)OCCOCCOCCOCCO2)N(CC)CC | > 200 µM | > 200 µM | 
Nc1[nH]n(-c2ccccc2)c(=O)c1/C=N/C(=S)NC1CCCCC1 | > 100 µM | > 100 µM | 
O=C(CCCN1CCC2(CC1)CC(=O)N(N1CCCCCC1)C2=O)c1ccccc1 | > 200 µM | 182 µM | 
CN(CCNC(=O)c1cn(C)c2c1ccc1ccccc12)CCNC(=O)c1cn(C)c2c1ccc1ccccc12 | > 200 µM | 3.09 µM | 
CN1NC2(CCCCC2)ON=C1c1ccccc1 |  |  | inactive
O=C1N[C@H]2c3c(Cl)sc(Cl)c3/C(=N/O)[C@H]2O1 | > 200 µM | 95.5 µM | 

Compound | EC50 | IC50 | outcome
Cc1ccc(C2=CSC3=NCCN23)cc1Cl | > 200 µM | 93.3 µM | 
O=c1c2cccnc2ncn1CCN1CCCC1 |  |  | inactive
CC(C)N(C(C)C)P1O[PH+](N(C(C)C)C(C)C)OP(N(C(C)C)C(C)C)O[PH+](N(C(C)C)C(C)C)O1.[C-]#[O+].[C-]#[O+].[C-]#[O+].[C-]#[O+].[W] (stereo unspecified) | > 200 µM | > 200 µM | 
O=[N+]([O-])c1cc(Cl)ccc1S(=O)(=O)c1ccccc1 | > 200 µM | 30.2 µM and 55 µM | 
O=C1N=NC(=O)N1c1cc(C(F)(F)F)cc(C(F)(F)F)c1 | > 200 µM | 2.88 µM | 
CN1CC2=C(OC(N)=C(C#N)C2c2cccs2)/C(=C/c2cccs2)C1 (stereo unspecified) | > 200 µM | 8.13 µM | 
CCCCCC(C/C=N/N(C)C)C(O)(C(F)(F)F)C(F)(F)F (stereo unspecified) | > 200 µM | 14.5 µM | 
O=C(OCCN1CCCCC1)c1cc2ccccc2n1Cc1ccccc1 | > 200 µM | 30.2 µM | 
CCOC(=O)C1=CC(C)(C(=O)OCC)Nc2c(nc(SC)n(C)c2=O)N1 (stereo unspecified) | > 200 µM | 145 µM | 
Cn1c2ccccc2c(=O)c2c(O)cc3c(c21)CC(C1(C)CO1)O3 (stereo unspecified) | > 6.17 µM | 0.209 µM | 
O=C(N/C(=C\c1cccc([N+](=O)[O-])c1)c1nc2c3c(ccc2[nH]1)C(=O)c1ccccc1C3=O)c1ccccc1 |  |  | inactive
CN(C)CCNCc1ccc(-c2cccc(-c3ccc(CNCCN(C)C)cc3)n2)cc1 | > 204 µM | 2.45 µM | 
O=C(NS(=O)(=O)Nc1ccccc1)OC(c1ccccc1)c1ccccc1 | > 200 µM | 70.8 µM | 
CCOC(=O)C1=c2[nH]c(O)c(C(=O)OCC)c2=NC1=O | > 5.13 µM | > 5.13 µM | 
O=c1[nH]c2nn(-c3ccccc3)cc2c(=O)n1OS(=O)(=O)c1ccccc1 | > 200 µM | > 200 µM | 
Cc1ccc(S(=O)(=O)N2CC3OC(C)(C)OC3C2CO)cc1 (stereo unspecified) |  |  | inactive
C=CCNc1nc2c(s1)c(C)c(O)c1ccccc12 | > 200 µM | 3.55 µM | 
CC(C)/C(Cl)=N\OC(=O)Nc1ccccc1F | > 200 µM | 7.94 µM | 
CC1(C)CC(C2CC(C)(C)CC(C)(C)[C@H]2O)[C@@H](O)C(C)(C)C1 (stereo partly specified) | > 12 µM | > 12 µM | 
Cc1cn(CCCCCCOC(=O)NC(CCCNC(N)=O)C(=O)O)c(=O)[nH]c1=O (stereo unspecified) | > 200 µM | > 200 µM | 
C/C(=N\O)C(CN(C)C)C(c1ccccc1)c1c(O)c2ccccc2oc1=O (stereo unspecified) | > 32.4 µM | 21.9 µM | 
COc1ccc2oc(C(=O)O)c3c2c1CCC3 |  |  | inactive

Compound | EC50 | IC50 | outcome
O=P1(Nc2ccccc2)NCCCO1 (stereo unspecified) | > 200 µM | > 200 µM | 
CC12C(=O)N(C3CCC(=O)NC3=O)C(=O)C1C1CCC2C1 (stereo unspecified) | > 200 µM | > 200 µM | 
CC(=O)/C(=C/c1ccccc1F)C(=O)c1ccccc1 | > 26.9 µM | > 26.9 µM | 
Cc1cc(=O)[nH]c(-n2[nH]c3c(c2=O)CCCC3)n1 | > 200 µM | 24.5 µM | 
COc1ccc(S(=O)Cc2ccc(C(=O)O)cc2[N+](=O)[O-])cc1 (stereo unspecified) | > 741 µM | 631 µM | 
Cc1n(CC(=O)c2ccccc2)nc2sc(N)n[n+]12 | > 200 µM | 123 µM | 
COC(=O)[C@H]1C2CC[C@@H]3C45C[C@@H](c6ccoc6)O[C@@H]4O[C@@H](O2)C31CCC5C (stereo partly specified) | > 95.5 µM | > 95.5 µM | 
C/C(=N/OCCC(=O)O)C1CC1 | > 1450 µM | > 1450 µM | 
CC(O)CSP(=S)(Oc1ccccc1)Oc1ccccc1 (stereo unspecified) | > 39.8 µM | > 39.8 µM | 
CC(C)S1=C2C(=O)CC(C)(C)CC2=Nc2ccccc21 (stereo unspecified) | 61.7 µM | > 200 µM | 
CC1(C)OCC2OC3([C@H](O)CCO)OC(C)(C)OC3C2O1 (stereo partly specified) | > 200 µM | > 200 µM | 
CC1(CC(=O)OC(C#C[Si](C)(C)C)Cc2ccccc2)OCCO1 (stereo unspecified) | > 200 µM | 102 µM | 
N#CC(C#N)=CN | > 200 µM | > 200 µM | 
O=C1OCC2=Nc3cccc4cccc(c34)N12 | > 0.676 µM | 0.331 µM | 
O=c1ccn(C2OC(CN(O)CCC3C(O)C(CO)OC3n3ccc(=O)[nH]c3=O)C(O)C2O)c(=O)[nH]1 (stereo unspecified) | > 200 µM | > 200 µM | 
NC(=O)C1CC(=O)NCCCC(NC(=O)C(N)Cc2ccc(O)cc2)C(=O)NC(Cc2ccccc2)C(=O)N1 (stereo unspecified) (H-Y[Orn]FD-NH2; lactam 2-4; configuration not given here) | > 100 µM | > 100 µM | 
O=C1C=C2CC3=CC(=O)C=C(CC4=CC(=O)C=C(CC5=CC(=O)C=C(CC(=C1)C2=O)C5=O)C4=O)C3=O | > 53.7 µM | 0.912 µM | 
C=CCNc1nc2c(s1)CCc1cc(OC)c(OC)cc1-2 | > 24 µM | > 24 µM | 
O=C[C@@H](CO)O[C@H](C=O)c1c[nH]c(=O)[nH]c1=O | > 1020 µM | 107 µM | 
CS(=O)(=O)OCCN1CCN(C(=O)c2cccc3c(Nc4ccc(S(N)(=O)=O)cc4)c4ccccc4nc23)CC1 | > 51.3 µM | > 51.3 µM | 
O=S(=O)(O)C1=C2Sc3ccccc3N=C2c2ccccc2C1 | > 141 µM | 7.94 µM | 
NS(=O)(=O)c1ccc(NC(=O)c2ccc3nc4ccccc4c(Nc4ccc(S(N)(=O)=O)cc4)c3c2)cc1 | 67.6 µM | > 200 µM | 

Compound | EC50 | IC50 | outcome
CCCCN=c1ssc(=O)n1CCCC | > 200 µM | 26.3 µM | 
CNc1cc(Cl)ccc1S(=O)(=O)c1ccccc1[N+](=O)[O-] | 5.37 µM | > 200 µM | 
CC1(C)CCCC(C)(C2CCC3(C)C2C(O)CC2C4(C)CCC(O)C(C)(C)C4C(O)CC23C)O1 (stereo unspecified) |  |  | inactive
CCOC(=O)C1C2CCC(C2)C1(CCl)C(=O)OCC (stereo unspecified) | > 251 µM | > 251 µM | 
Cc1sc2ccccc2c2nc3ccccc3c1-2 |  |  | inactive
O=C(O)CCSSCCCCCS(=O)O | > 200 µM | 24 µM | 
Clc1ccccc1OCc1nc2ccccc2[nH]1 | > 200 µM | > 200 µM | 
O=C(c1ccccc1)c1ccc(C(c2c(O)c3ccccc3oc2=O)c2c(O)c3ccccc3oc2=O)cc1 | > 200 µM | 34.7 µM | 
Nc1ncnc2c1ccn2C/C=C\CO | > 200 µM | > 200 µM | 
CC/C=N\N=C(N)N | > 200 µM | 30.2 µM | 
O=CC1(C(O)C2SCCCS2)SCCCS1 (stereo unspecified) | > 100 µM | 5.5 µM | 
Cc1ccc(Nc2sc(C)cc2C#N)c([N+](=O)[O-])c1 | > 200 µM | 178 µM | 
C/C(O)=C(\N=O)C(=O)NCCc1ccccc1 | > 288 µM | > 288 µM | 
S=C(NC1CCCCC1)SSSSC(=S)NC1CCCCC1 | > 91.2 µM | 33.1 µM | 
CCOc1ccc(-c2nc(-c3oc4ccccc4c(=O)c3OC(C)=O)cs2)cc1 | > 200 µM | 112 µM | 
CCN(CC)/[N+]([O-])=N/OS(=O)(=O)N(C)C | > 200 µM | > 200 µM | 
CC(C)=NOC(=O)CNC(=O)C(Cc1ccccc1)NC(=O)C(C)NC(=O)OC(C)(C)C (stereo unspecified) | > 200 µM | > 200 µM | 
Cc1cc(NC(=O)NC(=O)c2ccccc2[N+](=O)[O-])ccc1Oc1ncc(Cl)cn1 |  |  | inactive
CCOCc1cc(=O)c2c(O)cc3c(c2o1)CCC(C)(C)O3 |  |  | inactive
COC(=O)C(CC12CC3CC(CC(C3)C1)C2)NC(=O)C(N)CC(=O)O (stereo unspecified) | > 200 µM | > 200 µM | 
CC(=O)Nc1[nH]c(=O)[nH]c(=O)c1N(C(C)=O)C(C)=O | > 933 µM | > 933 µM | 
